# Data from PMC5031402 (PLoS ONE, 2016).
# Read-outs that look alike come from different tables or passages of the source.
# Key:
# [1] = test system: brain AChE; conditions: read-out: IC50-30min; Gallus (chicken) brain AChE; cited from earlier work
# [2] = test system: AChE; conditions: read-out: IC50-30min; Percophis brasiliensis, marine fish; cited from earlier work
# [3] = test system: brain AChE; assay type: biochemical, Lagocephalus laevigatus
# Method: (§1) The residual enzyme activities [Er] were evaluated.
# [4] = test system: brain AChE; assay type: biochemical, Mugil liza; conditions: for inhibition of AChE: mullet AChE, 1-5 min incubation
# Method: as §1
# [5] = target: T1, brain AChE (Gallus gallus, UniProt P36196); conditions: Gallus domesticus (hen) brain AChE
# T1 sequence (P36196 20-767): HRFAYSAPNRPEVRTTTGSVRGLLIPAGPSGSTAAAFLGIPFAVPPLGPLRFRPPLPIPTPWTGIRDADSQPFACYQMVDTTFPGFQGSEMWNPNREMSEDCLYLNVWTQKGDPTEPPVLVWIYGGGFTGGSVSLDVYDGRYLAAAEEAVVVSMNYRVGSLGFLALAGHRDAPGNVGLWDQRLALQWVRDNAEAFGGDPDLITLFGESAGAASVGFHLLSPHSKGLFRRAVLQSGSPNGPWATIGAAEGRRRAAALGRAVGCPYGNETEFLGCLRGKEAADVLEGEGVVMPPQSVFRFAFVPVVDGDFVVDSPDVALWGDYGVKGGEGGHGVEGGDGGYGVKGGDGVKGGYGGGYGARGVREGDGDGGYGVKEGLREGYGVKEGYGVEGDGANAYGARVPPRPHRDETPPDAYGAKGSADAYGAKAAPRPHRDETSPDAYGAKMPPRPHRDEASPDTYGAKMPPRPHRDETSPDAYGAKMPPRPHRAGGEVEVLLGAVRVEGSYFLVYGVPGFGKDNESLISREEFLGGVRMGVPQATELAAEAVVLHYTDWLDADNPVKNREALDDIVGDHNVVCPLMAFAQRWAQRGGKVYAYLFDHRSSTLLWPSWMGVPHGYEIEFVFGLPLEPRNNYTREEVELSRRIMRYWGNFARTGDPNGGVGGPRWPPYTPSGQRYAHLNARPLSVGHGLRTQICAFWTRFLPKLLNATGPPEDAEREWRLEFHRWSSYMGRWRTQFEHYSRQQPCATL
# Method: Whole brains were suspended in buffer (1 g of tissue plus 10 mL sodium phosphate 0.1 M, pH 7.5) and homogenized in an ice bath using an Ultra-Turrax homogenizer. The homogenate was then centrifuged (5,000g/30 min/5°C), and the soluble fraction was discarded. The pellet was then resuspended using the same volume of a 0.1 g% Triton X-100 in a 0.1 M sodium phosphate, pH 7.5, solution, and re-homogenized. After a second centrifugation (15,000g/90 min/5°C), the supernatant resulting from the pellet ressolubilization, or “solubilized AChE—AchEsol” [7], was collected, frozen, and stored at -20°C. All assays were conducted at most 72 hours after production of the supernatant fractions (AChEsol).
# Brain AChE activity was assayed spectrophotometrically in 0.1 M sodium phosphate Triton X-100 0.1 g% pH 7.5 by a modification of Ellman’s method [18], as described by Silva Filho and colleagues [7]. The specificity of AChE for substrates (P%) was calculated by the ratio of AChE activity when using propionylthiocholine as substrate divided by AChE activity when using acetylthiocholine: P%, [(activity with ProScol/activity with AceScol) x 100] (%) [6].
# Inhibition kinetic constants (IKC) were obtained using the methods described by Kemp and Wallace [9] and Carr and Chambers [19], and by the equations proposed by Kitz and Wilson [10] and Main [12]. […]
# [6] = test system: AChE; conditions: read-out: IC50-30min; Piaractus mesopotamicus, freshwater fish; cited from earlier work
# [7] = test system: brain AChE; conditions: read-out: IC50-30min; Rattus (rat) brain AChE; cited from earlier work
# [8] = test system: brain AChE; assay type: biochemical; conditions: Genidens genidens (catfish) brain AChE
# Method: as §1
# [9] = test system: AChE; conditions: read-out: IC50-30min; Genidens genidens, marine fish; cited from earlier work
# [10] = test system: AChE; conditions: read-out: IC50-30min; Prochilodus lineatus, freshwater fish; cited from earlier work
smiles,measurement,setting,value
"COP(=O)(OC)Oc1ccc([N+](=O)[O-])cc1 [methyl-paraoxon, dimethyl-4-nitrophenyl-phosphate]",IC50,[1],0.037 µM
same,IC50,[2],3.34 µM
same,kp: phosphorylation rate constant,[3]; Lagocephalus laevigatus (puffer fish) brain AChE,0.55 ± 0.08 min⁻¹
same,ki: Bimolecular reaction constant,"[3]; Lagocephalus laevigatus (puffer fish) brain AChE, pH 7.5, 0.1 g% Triton X-100",155 ± 12.7 M⁻¹ s⁻¹
same,Kd,"[3]; Lagocephalus laevigatus (puffer fish) brain AChE, read-out: Kd: dissociation constant of enzyme-inhibitor complex (EI)",62.6 ± 14.7 µM
same,IC50,"[3]; read-out: IC50: concentration that produced 50% inhibition of brain AChE activity in 30 min, Lagocephalus laevigatus (puffer fish), 30 min incubation, estimated using the ki",2.84 ± 0.145 µM
same,kp: phosphorylation rate constant,[4]; Mugil liza (mullet) brain AChE,1.64 ± 0.6 min⁻¹
same,ki: Bimolecular reaction constant,"[4]; Mugil liza (mullet) brain AChE, pH 7.5, 0.1 g% Triton X-100",179.5 ± 11.5 M⁻¹ s⁻¹
same,Kd,"[4]; Mugil liza (mullet) brain AChE, read-out: Kd: dissociation constant of enzyme-inhibitor complex (EI)",159 ± 59.6 µM
same,inhibition of AChE,[4]; 5μM of MP,less than 10%
same,inhibition of AChE,[4]; 208μM of MP,higher than 90%
same,IC50,"[4]; read-out: IC50: concentration that produced 50% inhibition of brain AChE activity in 30 min, Mugil liza (mullet), 30 min incubation, estimated using the ki",2.88 ± 0.422 µM
same,kp: phosphorylation rate constant,[5],0.47 ± 0.1 min⁻¹
same,ki: Bimolecular reaction constant,"[5]; pH 7.5, 0.1 g% Triton X-100",15010 ± 1090 M⁻¹ s⁻¹
same,IC50,[6],3.11 µM
same,IC50,[7],0.029 µM
same,kp: phosphorylation rate constant,[8],0.71 ± 0.1 min⁻¹
same,ki: Bimolecular reaction constant,"[8]; pH 7.5, 0.1 g% Triton X-100",588 ± 26.7 M⁻¹ s⁻¹
same,Kd,[8]; read-out: Kd: dissociation constant of enzyme-inhibitor complex (EI),20.3 ± 2.95 µM
same,IC50,[9],0.455 µM
same,IC50,[10],0.123 µM
